Data on 5 compounds can be found in patent US20050119179A1, “Inositol 1, 4, 5-triphosphate receptor (type 1), phosphorylation and modulation by CDC2” (priority 2003, published 2005).

For test [1], the system named is syncytial cell death induced by HIV infection. The settings on record: inhibition of cdc2 activity; cited from earlier work.
Another test deals with IP3 receptor. As to the kind of experiment: IP3 receptor function in wild type and phosphorylation deficient mutant DT40 cells before and after activation. To be noted: phosphorylation deficient mutant, FIG. 6. The test is classed as cell-based. The procedure: The compounds were tested on wild type DT40 cells. The phosphorylation deficient cells were generated by transfecting phosphorylation deficient IP3R mutant cDNAs into triple IP3R deficient DT40 cells. These cells express mutant IP3R with Ser421 and Thr799 replaced by alanine residues. The remaining portion of the receptor is the same as native IP3R.

For test [2], the system named is IP3R1 phosphorylation at Ser421 and Thr799 in DT40 cells. As to the kind of experiment: IP3R1 phosphorylation in DT40 cells, immunoblot with αSer421 and αThr799. The settings on record: 1 μM nocodazole, 16 h, serum-starved DT40 cells, compared to control cells. It is filed as cell-based. How it is done: FIG. 4 IP3R1 phosphorylation at Ser421 and Thr799 occurs in vivo. DT40 cells were serum-starved for 24 h and cultured with and without 1 μM nocodazole (control) for 16 h in RPMI-1640 medium containing 10% FBS. After 16 h in culture, cells were washed two times with PBS, and cell lysates were resolved on 6% SDS-PAGE gels and immunoblotted with αSer^421 (A), αThr^799 (B) or αIP3R1 (C).
Cells were equalized for number and lysed in ice-cold lysis buffer containing 0.5% Nonidet P-40, 25 mM HEPES, pH 7.4, 150 mM NaCl, 1 mM EDTA, 1 mM sodium orthovanadate and protease inhibitors. Cell lysates were centrifuged at 13,000× g in a microcentrifuge, and the supernatants were subjected to immunoblotting and immunoprecipitation (Frangioni and Neal 1993; Matter, et al., 1993). The membranes were blocked in TBST (20 mM Tris/HCl, pH 7.4, 0.9% NaCl, and 0.05% Tween 20) containing 5% nonfat dried milk for 1 hr followed by incubation with primary antibodies. After extensive washings, the membranes were incubated with secondary antibody conjugated to horseradish peroxidase (goat anti-rabbit IgG; Pharmingen, Calif.) in TBST containing 5% nonfat dried milk. The immunoblots were analyzed using an ECL detection system (Amersham, Piscataway, N.J.). […] Phosphoproteins were separated by SDS-PAGE and detected by autoradiography as described (Frangioni and Neal 1993; Means 1994). […]
(Immunoblotting shows a protein as a band on a membrane.)

The target of the next test is T1, native cerebellar IP3R (Mus musculus, UniProt P11881).
T1 construct: host or cells: cerebellum
T1 sequence (P11881 whole entry): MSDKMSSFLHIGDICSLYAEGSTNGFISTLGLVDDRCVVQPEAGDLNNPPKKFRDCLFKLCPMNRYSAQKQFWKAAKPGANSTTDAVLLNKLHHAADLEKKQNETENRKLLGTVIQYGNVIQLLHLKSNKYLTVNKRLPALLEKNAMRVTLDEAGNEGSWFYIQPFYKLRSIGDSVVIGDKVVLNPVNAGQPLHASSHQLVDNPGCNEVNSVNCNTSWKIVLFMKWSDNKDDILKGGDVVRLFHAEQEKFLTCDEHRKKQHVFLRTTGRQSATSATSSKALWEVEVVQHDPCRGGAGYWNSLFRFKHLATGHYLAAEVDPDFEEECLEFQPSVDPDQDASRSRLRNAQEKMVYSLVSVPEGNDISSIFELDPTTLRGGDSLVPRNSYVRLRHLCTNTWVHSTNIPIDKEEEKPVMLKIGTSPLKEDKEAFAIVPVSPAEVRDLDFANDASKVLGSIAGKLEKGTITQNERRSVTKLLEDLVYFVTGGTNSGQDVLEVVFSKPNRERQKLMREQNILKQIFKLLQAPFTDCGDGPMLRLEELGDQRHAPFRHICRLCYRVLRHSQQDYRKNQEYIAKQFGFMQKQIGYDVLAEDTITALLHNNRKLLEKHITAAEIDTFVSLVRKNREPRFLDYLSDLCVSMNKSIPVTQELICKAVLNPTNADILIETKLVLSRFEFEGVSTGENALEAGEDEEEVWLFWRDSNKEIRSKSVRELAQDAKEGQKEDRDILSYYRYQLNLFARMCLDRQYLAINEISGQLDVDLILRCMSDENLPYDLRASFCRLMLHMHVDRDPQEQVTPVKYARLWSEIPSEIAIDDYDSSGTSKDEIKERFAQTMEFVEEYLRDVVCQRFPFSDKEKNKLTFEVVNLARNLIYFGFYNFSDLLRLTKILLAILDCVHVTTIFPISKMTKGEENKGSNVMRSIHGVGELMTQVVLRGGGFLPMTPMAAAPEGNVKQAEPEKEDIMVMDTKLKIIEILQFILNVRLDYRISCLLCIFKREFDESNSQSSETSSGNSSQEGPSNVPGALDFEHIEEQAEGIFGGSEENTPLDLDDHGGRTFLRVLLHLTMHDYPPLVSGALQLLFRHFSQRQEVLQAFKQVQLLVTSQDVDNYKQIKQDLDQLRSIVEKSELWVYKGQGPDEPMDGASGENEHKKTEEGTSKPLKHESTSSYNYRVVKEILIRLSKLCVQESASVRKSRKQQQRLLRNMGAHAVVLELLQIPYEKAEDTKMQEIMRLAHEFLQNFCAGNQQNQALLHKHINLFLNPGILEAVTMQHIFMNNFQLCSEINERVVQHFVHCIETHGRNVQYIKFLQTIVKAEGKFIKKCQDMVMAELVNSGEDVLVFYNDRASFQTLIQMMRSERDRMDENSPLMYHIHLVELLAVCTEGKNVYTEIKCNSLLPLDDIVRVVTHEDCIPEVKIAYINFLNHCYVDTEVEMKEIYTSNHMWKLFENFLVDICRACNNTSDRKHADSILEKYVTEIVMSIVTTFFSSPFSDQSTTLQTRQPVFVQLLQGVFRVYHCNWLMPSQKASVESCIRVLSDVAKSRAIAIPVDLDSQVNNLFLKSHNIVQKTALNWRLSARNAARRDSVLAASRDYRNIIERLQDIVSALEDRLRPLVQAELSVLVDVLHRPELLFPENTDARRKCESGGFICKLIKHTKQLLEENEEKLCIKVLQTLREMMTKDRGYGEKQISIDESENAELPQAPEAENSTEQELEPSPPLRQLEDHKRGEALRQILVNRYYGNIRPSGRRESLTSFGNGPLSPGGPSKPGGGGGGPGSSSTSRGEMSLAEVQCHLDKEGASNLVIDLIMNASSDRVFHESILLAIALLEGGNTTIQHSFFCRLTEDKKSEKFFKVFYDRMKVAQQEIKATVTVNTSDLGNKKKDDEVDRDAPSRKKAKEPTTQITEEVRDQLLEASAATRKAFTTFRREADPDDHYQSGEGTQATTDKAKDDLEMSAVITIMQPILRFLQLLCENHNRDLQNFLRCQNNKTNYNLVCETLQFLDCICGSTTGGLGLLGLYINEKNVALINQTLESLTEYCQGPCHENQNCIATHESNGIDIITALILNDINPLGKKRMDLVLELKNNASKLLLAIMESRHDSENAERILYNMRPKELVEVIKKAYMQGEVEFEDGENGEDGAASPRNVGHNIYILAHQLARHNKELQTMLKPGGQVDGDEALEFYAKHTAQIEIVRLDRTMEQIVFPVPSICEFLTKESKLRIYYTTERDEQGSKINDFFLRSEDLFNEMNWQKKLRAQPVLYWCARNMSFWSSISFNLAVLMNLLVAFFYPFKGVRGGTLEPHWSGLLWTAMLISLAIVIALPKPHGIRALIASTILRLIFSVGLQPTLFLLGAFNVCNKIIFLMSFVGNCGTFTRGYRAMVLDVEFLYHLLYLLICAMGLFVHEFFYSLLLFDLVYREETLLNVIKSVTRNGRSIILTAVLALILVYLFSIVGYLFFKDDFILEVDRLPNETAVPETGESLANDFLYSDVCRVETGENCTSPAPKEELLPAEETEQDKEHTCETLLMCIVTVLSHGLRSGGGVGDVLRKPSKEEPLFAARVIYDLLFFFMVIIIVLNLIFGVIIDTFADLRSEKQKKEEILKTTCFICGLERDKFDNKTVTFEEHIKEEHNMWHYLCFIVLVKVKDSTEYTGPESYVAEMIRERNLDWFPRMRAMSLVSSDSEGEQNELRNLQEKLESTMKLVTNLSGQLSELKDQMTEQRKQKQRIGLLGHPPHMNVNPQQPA
The settings on record: read-out: affinity for IP3; cited from earlier work.

On to `CC[C@H](CO)Nc1nc(NCc2ccccc2)c2ncn(C(C)C)c2n1` [roscovitine], for which, in test [1], the “syncytial cell death induced by HIV infection” value was “prevented syncytial cell death”.
`NCCOB(c1ccccc1)c1ccccc1` [2-APB]: the IP3 receptor function result in the test on IP3 receptor was “affect IP3 receptor function”.
On the same count and under the same terms, as for Xestospongin, the entry is “affect IP3 receptor function”.
As for `COC(=O)Nc1nc2ccc(C(=O)c3cccs3)cc2[nH]1` [Nocodazole, nocodazole], the “IP3R1 phosphorylation at both Ser421 and Thr799” value in test [2] is recorded as “greatly enhanced IP3R1 phosphorylation”.
For the compound `O=P(O)(O)O[C@@H]1[C@H](O)[C@H](O)[C@@H](OP(=O)(O)O)[C@H](OP(=O)(O)O)[C@H]1O` [IP3, inositol 1,4,5-trisphosphate], the Kd on native cerebellar IP3R was 83 nM.
